Source: patent publication US12275737B2, “Polymorphs of a kinase inhibitor, pharmaceutical compositions containing such a compound, preparation methods, and applications” (Meryx, Inc., priority 2019, dated 2025)
Structures can show the parent of a compound that is named as a salt. Where two headings read alike, the source gives them in different places. Each block holds one compound with its values, some of them ahead of it.

Assays:
[1] = Determination of crystal form stability; assay type: physicochemical
[2] = Determination of saturated solubility; assay type: physicochemical; settings: shaken 4 hours; for saturated solubility: 37° C.
Method: An appropriate amount of a sample of the compound is supersaturated in water at a pH of 1-8 and shaken at 37° C. for 4 hours with a shaker. The compound is sampled, centrifuged, then the supernatant is diluted and tested by HPLC. Calculations are compared to an external standard.
The saturated solubility of the compound of Crystal Form 1 and Crystal Form 2 of the compound of Formula I and MRX-2843 free base at 37° C. in different pH values are shown in Table 3.

[3] = Pharmacokinetics after oral capsule in male beagle dogs; assay type: in vivo; settings: for absorption in the body compared with the free alkali of the compound of Formula I: conclusion from Table 6
Method: Nine male beagle dogs are divided into three groups, three in each group. They are each respectively administrated a 5 mg/kg oral capsule (PO) of Crystal Form 1, Crystal Form 2 and free base of the compound of Formula I (the dose is calculated according to the dose of the free base). Blood is collected from the jugular vein before administration and after administration for 15 minutes, 30 minutes, 1 hour, 2 hours, 4 hours, 6 hours, 8 hours, 10 hours, and 24 hours, and the plasma is separated and stored in a refrigerator at −80° C. LC-MS is subsequently used for analysis.

[4] = stored at 40° C./75% RH for 1, 3 and 6 months, trihydrochloride
[5] = pH 2.0, water, trihydrochloride
[6] = pH 3.0, water, trihydrochloride
[7] = pH 4.5, water, trihydrochloride
[8] = pH 6.0, water, trihydrochloride
[9] = pH 6.8, water, trihydrochloride
[10] = pH 7.4, water, trihydrochloride
[11] = pH 8.0, water, trihydrochloride
[12] = 5 mg/kg (as free base), plasma, trihydrochloride
[13] = male, beagle, dog, plasma, po, 5 mg/kg, 5 mg/kg (as free base)
[14] = 5 mg/kg (as free base), plasma, listed as Free base of the compound of Formula I

crystal form after storage ([1]; stored at 25° C./60% RH for 1, 3 and 6 months): remains unchanged
crystal form after storage [1, 4]: remains unchanged
saturated solubility [2, 5]: 489.60 mg/mL
saturated solubility [2, 6]: 522.25 mg/mL
saturated solubility [2, 7]: 513.40 mg/mL
saturated solubility [2, 8]: 460.64 mg/mL
saturated solubility [2, 9]: 554.17 mg/mL
saturated solubility [2, 10]: 494.83 mg/mL
saturated solubility [2, 11]: 562.59 mg/mL
solubility at 4 h ([2]; water, 37 °C, pH 1, simulated gastric fluid, thermodynamic from solid, pH 1.0, water): 587 mg/mL
Cmax [3, 12]: 133 ng/mL
absorption in the body compared with the free alkali of the compound of Formula I ([3]; 5 mg/kg): better absorbed
AUC(0-inf) [3, 13]: 1620 ng·h/mL
AUC(0-t) [3, 13]: 1400 ng·h/mL
Tmax ([3]; male, beagle, dog, plasma, po, 5 mg/kg, 5 mg/kg (as free base), plasma, read-out: Tmax): 2.67 h
SMILES: CN1CCN(Cc2ccc(-c3cn([C@H]4CC[C@H](O)CC4)c4nc(NCCC5CC5)ncc34)cc2)CC1 [Crystal Form 1, trihydrochloride]

crystal form after storage ([1]; stored at 5° C. for 18 and 24 months): remains unchanged
crystal form after storage ([1]; stored at 25° C./60% RH for 1, 3, 6, 9, 12, 18 and 24 months): remained unchanged
crystal form after storage [1, 4]: unchanged
saturated solubility ([2]; pH 1.0, water, trihydrochloride): 535.05 mg/mL
saturated solubility [2, 5]: 531.72 mg/mL
saturated solubility [2, 6]: 512.80 mg/mL
saturated solubility [2, 7]: 527.84 mg/mL
saturated solubility [2, 8]: 546.95 mg/mL
saturated solubility [2, 9]: 557.34 mg/mL
saturated solubility [2, 10]: 516.01 mg/mL
saturated solubility [2, 11]: 479.26 mg/mL
AUCInf [3, 12]: 1,530 h * ng/mL
AUClast [3, 12]: 1,323 h * ng/mL
Cmax [3, 12]: 125 ng/mL
Tmax [3, 12]: 2.00 h
absorption in the body compared with the free alkali of the compound of Formula I ([3]; 5 mg/kg): better absorbed
SMILES: CN1CCN(Cc2ccc(-c3cn([C@H]4CC[C@H](O)CC4)c4nc(NCCC5CC5)ncc34)cc2)CC1 [Crystal Form 2, trihydrochloride]

saturated solubility ([2]; pH 1.0, water): 301.086 mg/mL
saturated solubility ([2]; pH 2.0, water): 3.110 mg/mL
saturated solubility ([2]; pH 3.0, water): 1.516 mg/mL
saturated solubility ([2]; pH 4.5, water): 2.034 mg/mL
saturated solubility ([2]; pH 6.0, water): 0.018 mg/mL
saturated solubility ([2]; pH 6.8, water): 0.008 mg/mL
saturated solubility ([2]; pH 7.4, water): 0.007 mg/mL
saturated solubility ([2]; pH 8.0, water): 0.008 mg/mL
AUCInf [3, 14]: 1,318 h * ng/mL
AUClast [3, 14]: 1,169 h * ng/mL
Cmax [3, 14]: 285 ng/mL
Tmax [3, 14]: 3.33 h
SMILES: CN1CCN(Cc2ccc(-c3cn([C@H]4CC[C@H](O)CC4)c4nc(NCCC5CC5)ncc34)cc2)CC1 [MRX-2843 free base, reference compound]
